Marks after values point to notes of the source that are not given here.
Tests used:
SKOV3 cells = assay: FISH detection of damaged telomeres after paclitaxel treatment; assay type: cell-based, human; conditions: 200 nM paclitaxel
Text: Fluorescent in situ hybridization (FISH). Fluorescent in situ hybridization (FISH) was used to identify the presence and to estimate the approximate length of individual telomere structures at the end of chromosomes. The FISH method used was a modification of a previously published method (Multani A S et al. (1996) Anticancer Res 16: 3435-3438; Henderson S et al. (1996) J Cell Biol 134:1-12), and consists of the following three steps: (a) the cells are fixed in a manner that promotes spreading of the chromosomes, (b) a nucleotide sequence complementary to the telomere sequence is used as probe to bind to the telomeres and to provide a point of attachment for fluorescently-labeled antibodies, and (c) the fluorescent signal is identified using fluorescent microscopy.
The methods are as follows. To spread the chromosomes, the cell pellet was incubated with a hypotonic solution (75 mM KCl) at 37° C. for 20 min, washed three times and fixed with acetic acid and methanol, dropped onto slides, air-dried, and denatured in 2×SSC and 70% formamide at 74° C. for 5 min. To detect the telomeres, the cells were incubated with a digoxigenin-labeled human telomeric probe (Oncor) at 37° C. for 16 to 18 hr. The slides were washed consecutively in 2×SSC at 42° C. and 72° C., each time for 5 min. After blocking with 5% skim milk for 10 min, cells were incubated sequentially with rhodamine-labeled (red color) anti-digoxigenin, rabbit anti-sheep, and rhodamine-labeled anti-rabbit antibodies, at room temperature for 30 min. Between each step, the slides were washed three times in 130 mM phosphate buffer, pH 7.4, 0.1% Triton X-100, each time for 5 min. The chromosomes were then counterstained with 0.1 μg/ml of […] (blue color) and examined under a fluorescence microscope at 100× magnification using a triple band pass filter at 340 nm.

solid tumors = conditions: Gan et al (1996); read-out: concentration that caused 50% cytotoxicity in solid tumors; cited from earlier work
[1] = mouse, in vivo
Method: The activity of paclitaxel, with or without AZT, was evaluated in immunodeficient mice (male Balb/c nu/nu mice, 6-8 weeks old) bearing the human pharynx FaDu xenografts. […] The saline control group received injections of 200 μl/day of physiological saline of five consecutive days. The paclitaxel group received injections of 10 mg/kg/day paclitaxel dissolved in Cremophor and ethanol (i.e., Taxol) in a volume of 200 μl for five consecutive days. The AZT group received a seven-day infusion of AZT at a rate of 200 ng/hr by a subcutaneously implanted Alzet minipump. […] Animal weights and tumor sizes were measured on days 1, 3, 6, 8, and 10 after initiation of the paclitaxel treatment.

CC(=O)O[C@H]1C(=O)[C@@]2(C)[C@H]([C@H](OC(=O)c3ccccc3)[C@]3(O)C[C@H](OC(=O)[C@H](O)[C@@H](NC(=O)c4ccccc4)c4ccccc4)C(C)=C1C3(C)C)[C@]1(OC(C)=O)CO[C@@H]1C[C@@H]2O [paclitaxel]
attached cells showing damaged telomeres (SKOV3 cells; 1 and 12 hr): < 5% | detached cells showing damaged telomeres (SKOV3 cells; 1 hr): 40% | detached cells showing damaged telomeres (SKOV3 cells; 12 hr): 90% | treatment time after which shortening or deletion of telomeres was detectable (SKOV3 cells; FaDu and SKOV3): 1 h | IC50 (solid tumors): 1 µM | End-of-experiment body weight [1]: 97∀6 ^a % of pretreatment value | body weight loss compared to the pretreatment weight [1]: < 3%
